According to patent publication US11230535B2, “CFTR regulators and methods of use thereof” (THE REGENTS OF THE UNIVERSITY OF CALIFORNIA, priority 2015, dated 2022):
Entries after “also recorded” stand apart in the source; their conditions may differ.

The compounds below were run on loperamide-treated mice (assay: Loperamide-induced mouse model of constipation (3-h stool weight, pellet number, water content)). Settings: wildtype loperamide-treated mice.

Row | Compound | effect of inactive analog on stool parameters
1 | Cn1c(=O)c(-c2cc([N+](=O)[O-])ccc2N)nc2ccccc21 [inactive chemical analog of CFTRact-J027, reference compound] | nor was an inactive chemical analog of CFTRact-J027 effective

The compounds below were run on rat liver microsomes (assay: In vitro metabolic stability in rat liver microsomes). Settings: 5 μM, rat hepatic microsomes, NADPH.
Assay type: in vitro ADME
Protocol: In vitro metabolic stability. Compounds (each 5 μM) were incubated for specified times at 37° C. with rat liver microsomes (1 mg/ml; Sigma-Aldrich) in potassium phosphate buffer containing 1 mM NADPH, as described^14.

Row | Compound | original compound remaining at 60 min
2 | CCN(CC)c1nc(Nc2ccc3ncoc3c2)nc(OC(C(F)(F)F)C(F)(F)F)n1 [6j, N′-(1,3-Benzoxazol-6-yl)-N,N-diethyl-6-[(1,1,1,3,3,3-hexafluoropropan-2-yl)oxy]-1,3,5-triazine-2,4-diamine] | ~60%

Same assay, conditions: NADPH

Row | Compound | metabolic stability in hepatic microsomes, in words
3 | CCN(CC)c1nc(Nc2ccc3ncoc3c2)nc(OC(C(F)(F)F)C(F)(F)F)n1 [6j, N′-(1,3-Benzoxazol-6-yl)-N,N-diethyl-6-[(1,1,1,3,3,3-hexafluoropropan-2-yl)oxy]-1,3,5-triazine-2,4-diamine] | metabolized slowly; also recorded: substantially greater in vitro metabolic stability than 1 or 12

These compounds were tested on mice (assay: Tear secretion / tear volume in mice (phenol red thread)). Settings: mouse, in vivo.
Assay type: in vivo, mouse
Protocol: (§1) To measure unstimulated tear production, phenol red threads (Zone-Quick, Oasis Medical, Glendora, Calif., USA) were placed for 10 s in the lateral canthi of isofluorane-anesthetized mice using jewelers' forceps. Tear volume was measured as the length of thread wetting, as visualized under a dissecting microscope. Serial measurements were used to evaluate compound pharmacodynamics after application of 2-μL drops of compound formulations (50-100 μM compound in PBS containing 0.5% polysorbate and 0.5% DMSO) comparing to vehicle.
as §1, with “Tear secretion. To” for “To”, “2-[…]L” for “2-μL”
Tear volume. Tear volume was measured using phenol red threads (Zone-Quick, Oasis Medical, Glendora, Calif.) as described. Threads were placed for 10 s in the lateral canthi of isofluorane-anesthetized mice using jewelers' forceps. Tear volume was determined from the length of thread wetting as visualized under a dissecting microscope. Serial measurements were done to evaluate compound pharmacodynamics after topical application of a single, 2.5-μL drop of ophthalmic formulation containing 0-100 μM of 1 or 12 in Ringer's solution with 0.3% carboxymethylcellulose (high viscosity, VWR, Radnor, Pa.), 0.015% benzalkonium chloride preservative, and 1% DMSO. Both eyes in each mouse received the same treatment to control for potential contralateral effects of a given treatment.

Row | Compound | basal tear secretion at 30 min | effect on tear secretion after 2 hours
4 | cholera toxin | substantially increased | undetectable

Same assay, conditions: single topical dose, 30 min

Row | Compound | basal tear secretion at 30 min
5 | CC(C)Cn1c(=O)n(C)c(=O)c2[nH]cnc21 [IBMX, 3-isobutyl-1-methylxanthine, reference compound] | substantially increased

Same assay, conditions: single topical dose, after 2 hours

Row | Compound | effect on tear secretion after 2 hours
6 | CC(C)Cn1c(=O)n(C)c(=O)c2[nH]cnc21 [IBMX, 3-isobutyl-1-methylxanthine, reference compound] | undetectable

What follows are compounds tested against human wild-type CFTR (Homo sapiens, UniProt P13569) (assay: Cell-based plate reader (YFP iodide influx) assay of CFTR function). Settings: N-methyl-N′-phenyl-1,3,5-triazine diamine analogs; read-out: EC50.
Set-up: expressed in transfected cells; host or cells: Fischer rat thyroid (FRT) cells stably co-expressing YFP-H148Q
Protocol: The initiate rate of I^− influx was computed by determined using exponential regression. All compound plates contained negative controls (DMSO vehicle) and positive controls (20 μM forskolin).
High-throughput screening. […] The initiate rate of I^− influx was computed by determined using exponential regression. All compound plates contained negative controls (DMSO vehicle) and positive controls ([…] forskolin).
Platereader assays of chloride channel function. CFTR activity was assayed as described. […] I^− influx was measured in a plate reader with initial baseline read for 2 s and then for 12 s after rapid addition of an I^−-containing solution. TMEM16A activity was assayed similarly as described using FRT cells co-expressing YFP and TMEM16A. Activity of non-TMEM16A CaCC was assayed as described in HT-29 cells expressing YFP. In each assay initial rates of I^− influx were computed as a linear measure of channel function.

Sequence of human wild-type CFTR (P13569 whole entry): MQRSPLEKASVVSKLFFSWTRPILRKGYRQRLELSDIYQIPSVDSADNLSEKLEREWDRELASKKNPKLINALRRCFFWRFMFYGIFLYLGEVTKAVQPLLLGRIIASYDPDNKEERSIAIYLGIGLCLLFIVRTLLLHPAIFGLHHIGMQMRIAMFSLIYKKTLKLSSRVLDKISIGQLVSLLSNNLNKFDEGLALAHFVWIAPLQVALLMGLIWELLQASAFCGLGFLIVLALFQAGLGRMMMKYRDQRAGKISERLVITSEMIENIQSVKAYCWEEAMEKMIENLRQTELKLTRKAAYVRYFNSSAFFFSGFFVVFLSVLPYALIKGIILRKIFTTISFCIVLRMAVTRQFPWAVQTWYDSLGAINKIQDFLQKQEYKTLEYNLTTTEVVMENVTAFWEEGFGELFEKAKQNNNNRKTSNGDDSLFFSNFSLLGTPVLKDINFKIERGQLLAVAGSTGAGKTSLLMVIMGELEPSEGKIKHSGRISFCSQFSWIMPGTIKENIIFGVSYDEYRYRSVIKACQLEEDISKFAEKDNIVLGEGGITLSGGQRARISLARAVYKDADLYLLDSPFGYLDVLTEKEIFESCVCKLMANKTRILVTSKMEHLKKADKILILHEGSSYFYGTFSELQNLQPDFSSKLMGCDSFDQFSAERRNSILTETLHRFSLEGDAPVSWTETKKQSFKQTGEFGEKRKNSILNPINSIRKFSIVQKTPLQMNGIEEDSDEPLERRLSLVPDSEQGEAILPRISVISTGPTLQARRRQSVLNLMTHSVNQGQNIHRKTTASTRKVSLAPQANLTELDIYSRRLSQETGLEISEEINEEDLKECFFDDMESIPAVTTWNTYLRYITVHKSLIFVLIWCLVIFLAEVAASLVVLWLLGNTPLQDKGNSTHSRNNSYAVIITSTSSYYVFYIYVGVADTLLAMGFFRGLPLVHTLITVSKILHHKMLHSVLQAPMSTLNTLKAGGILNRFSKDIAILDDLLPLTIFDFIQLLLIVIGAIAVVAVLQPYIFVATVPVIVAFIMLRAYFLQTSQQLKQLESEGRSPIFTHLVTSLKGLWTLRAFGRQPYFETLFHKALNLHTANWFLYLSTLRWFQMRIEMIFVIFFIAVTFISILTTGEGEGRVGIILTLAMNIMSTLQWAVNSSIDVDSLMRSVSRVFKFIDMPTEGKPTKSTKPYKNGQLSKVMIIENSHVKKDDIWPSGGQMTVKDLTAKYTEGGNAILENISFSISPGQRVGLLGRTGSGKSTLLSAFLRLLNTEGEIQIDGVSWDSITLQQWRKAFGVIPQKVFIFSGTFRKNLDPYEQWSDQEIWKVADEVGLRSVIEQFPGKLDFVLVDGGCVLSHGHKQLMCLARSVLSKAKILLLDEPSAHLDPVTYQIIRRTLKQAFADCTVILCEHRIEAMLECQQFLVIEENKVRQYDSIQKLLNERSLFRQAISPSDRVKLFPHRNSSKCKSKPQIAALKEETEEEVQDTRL

Row | Compound | EC50
7 | CNc1nc(Nc2ccccc2)nc(OC(C(F)(F)F)C(F)(F)F)n1 [compound 11] | 0.12 µM

Same assay, conditions: bicyclic aniline analogs; read-out: EC50

Row | Compound | EC50
8 | CCN(CC)c1nc(Nc2ccc3ncoc3c2)nc(OC(C(F)(F)F)C(F)(F)F)n1 [6j, N′-(1,3-Benzoxazol-6-yl)-N,N-diethyl-6-[(1,1,1,3,3,3-hexafluoropropan-2-yl)oxy]-1,3,5-triazine-2,4-diamine] | 0.15 µM

Same assay, conditions: commercial analogs; FRT cells with YFP and wildtype CFTR, 125 nM forskolin

Row | Compound | % Activation
9 | Fc1ccc(Nc2nc(OC(C(F)(F)F)C(F)(F)F)nc(N3CCCCC3)n2)cc1 [K062] | 49%
10 | FC(F)(F)C(Oc1nc(N2CCCCCC2)nc(N(c2ccccc2)c2ccccc2)n1)C(F)(F)F [K063] | 41%
11 | CC(=O)N1CCN(c2nc(Nc3ccccc3C(=O)c3ccccc3)nc(OC(C(F)(F)F)C(F)(F)F)n2)CC1 [K064] | 40%
12 | FC(F)(F)C(Oc1nc(Nc2ccc(Cl)cc2)nc(N2CCOCC2)n1)C(F)(F)F [K065] | 38%
13 | CCOc1nc(Nc2ccc(-c3nc4ccccc4o3)cc2)nc(N2CCOCC2)n1 [K066] | 87%
14 | C=CCNc1nc(Nc2ccc(-c3nc4ccccc4o3)cc2)nc(OCC)n1 [K067] | 49%
15 | CCOc1nc(NCCO)nc(Nc2ccc(-c3nc4ccccc4o3)cc2)n1 [K068] | 84%
16 | FC(F)(F)COc1nc(Nc2ccc(OC(F)(F)Cl)cc2)nc(N2CCOCC2)n1 [K069] | 37%
17 | FC(F)(F)COc1nc(Nc2ccc(OC(F)(F)Cl)cc2)nc(N2CCCCC2)n1 [K070] | 28%
18 | CN1CCN(c2nc(Nc3ccc(OC(F)(F)Cl)cc3)nc(OCC(F)(F)F)n2)CC1 [K071] | 25%
19 | FC(F)(F)COc1nc(Nc2ccc(OC(F)(F)F)cc2)nc(N2CCOCC2)n1 [K072] | 31%
20 | FC(F)(F)COc1nc(Nc2ccc(OC(F)(F)F)cc2)nc(N2CCCCC2)n1 [K073] | 19%
21 | CN1CCN(c2nc(Nc3ccc(OC(F)(F)F)cc3)nc(OCC(F)(F)F)n2)CC1 [K074] | 25%
22 | CN(C)c1nc(Nc2ccc(OC(F)(F)Cl)cc2)nc(OCC(F)(F)F)n1 [K075] | 32%
23 | C=CCNc1nc(Nc2ccc(OC(F)(F)Cl)cc2)nc(OCC(F)(F)F)n1 [K076] | 46%
24 | C=CCNc1nc(Nc2ccc(OC(F)(F)Cl)cc2)nc(OCC(F)(F)F)n1 [K077] | 29%
25 | OCCNc1nc(Nc2ccc(OC(F)(F)Cl)cc2)nc(OCC(F)(F)F)n1 [K078] | 28%
26 | FC(F)(F)COc1nc(Nc2ccc(OC(F)(F)F)cc2)nc(NC2CC2)n1 [K079] | 40%
27 | FC(F)(F)COc1nc(NCc2ccccc2)nc(Nc2ccc(OC(F)(F)Cl)cc2)n1 [K080] | 26%
28 | FC(F)(F)COc1nc(Nc2ccc(OC(F)(F)Cl)cc2)nc(N2CCN(c3cccc(Cl)c3)CC2)n1 [K081] | 24%
29 | FC(F)(F)COc1nc(NCc2ccccc2)nc(Nc2ccc(OC(F)(F)F)cc2)n1 [K082] | 28%
30 | FC(F)(F)COc1nc(Nc2ccc(OC(F)(F)Cl)cc2)nc(NC2CC2)n1 [K083] | 54%
31 | CCC(C)Nc1nc(Nc2ccc(OC(F)(F)Cl)cc2)nc(OCC(F)(F)F)n1 (stereo not shown) [K084] | 22%
32 | CCCCNc1nc(Nc2ccc(OC(F)(F)Cl)cc2)nc(OCC(F)(F)F)n1 [K085] | 25%
33 | CCC(C)Nc1nc(Nc2ccc(OC(F)(F)F)cc2)nc(OCC(F)(F)F)n1 (stereo not shown) [K086] | 20%
34 | CN(C)c1nc(Nc2ccc(Cl)cc2)nc(OCCNC(=O)c2ccc(Cl)cc2)n1 [K087] | 47%
35 | CCCCCCNc1nc(Nc2ccc([N+](=O)[O-])cc2)nc(OCC)n1 [K088] | 33%
36 | CCOc1nc(NCCN2CCOCC2)nc(Nc2ccc([N+](=O)[O-])cc2)n1 [K090] | 52%
37 | Cc1cc(I)ccc1Nc1nc(NCCN2CCOCC2)nc(OCC(F)(F)F)n1 [K091] | 43%

Same assay, conditions: commercial analogs; read-out: EC50 (full-dose response assay, compounds >80% activation)

Row | Compound | EC50
38 | CCOc1nc(Nc2ccc(-c3nc4ccccc4o3)cc2)nc(N2CCOCC2)n1 [K066] | 2.9 µM
39 | CCOc1nc(NCCO)nc(Nc2ccc(-c3nc4ccccc4o3)cc2)n1 [K068] | 4.1 µM
